Test results published in ChEMBL document CHEMBL1201862, “PubChem BioAssay data set” (2004).
The source made the active and inactive calls. Rule as the data show it: actives have a measured IC50 and inactives only a lower limit.

Target: T1, Apoptotic protease-activating factor 1 (Homo sapiens, UniProt O14727)
T1 sequence (O14727 whole entry): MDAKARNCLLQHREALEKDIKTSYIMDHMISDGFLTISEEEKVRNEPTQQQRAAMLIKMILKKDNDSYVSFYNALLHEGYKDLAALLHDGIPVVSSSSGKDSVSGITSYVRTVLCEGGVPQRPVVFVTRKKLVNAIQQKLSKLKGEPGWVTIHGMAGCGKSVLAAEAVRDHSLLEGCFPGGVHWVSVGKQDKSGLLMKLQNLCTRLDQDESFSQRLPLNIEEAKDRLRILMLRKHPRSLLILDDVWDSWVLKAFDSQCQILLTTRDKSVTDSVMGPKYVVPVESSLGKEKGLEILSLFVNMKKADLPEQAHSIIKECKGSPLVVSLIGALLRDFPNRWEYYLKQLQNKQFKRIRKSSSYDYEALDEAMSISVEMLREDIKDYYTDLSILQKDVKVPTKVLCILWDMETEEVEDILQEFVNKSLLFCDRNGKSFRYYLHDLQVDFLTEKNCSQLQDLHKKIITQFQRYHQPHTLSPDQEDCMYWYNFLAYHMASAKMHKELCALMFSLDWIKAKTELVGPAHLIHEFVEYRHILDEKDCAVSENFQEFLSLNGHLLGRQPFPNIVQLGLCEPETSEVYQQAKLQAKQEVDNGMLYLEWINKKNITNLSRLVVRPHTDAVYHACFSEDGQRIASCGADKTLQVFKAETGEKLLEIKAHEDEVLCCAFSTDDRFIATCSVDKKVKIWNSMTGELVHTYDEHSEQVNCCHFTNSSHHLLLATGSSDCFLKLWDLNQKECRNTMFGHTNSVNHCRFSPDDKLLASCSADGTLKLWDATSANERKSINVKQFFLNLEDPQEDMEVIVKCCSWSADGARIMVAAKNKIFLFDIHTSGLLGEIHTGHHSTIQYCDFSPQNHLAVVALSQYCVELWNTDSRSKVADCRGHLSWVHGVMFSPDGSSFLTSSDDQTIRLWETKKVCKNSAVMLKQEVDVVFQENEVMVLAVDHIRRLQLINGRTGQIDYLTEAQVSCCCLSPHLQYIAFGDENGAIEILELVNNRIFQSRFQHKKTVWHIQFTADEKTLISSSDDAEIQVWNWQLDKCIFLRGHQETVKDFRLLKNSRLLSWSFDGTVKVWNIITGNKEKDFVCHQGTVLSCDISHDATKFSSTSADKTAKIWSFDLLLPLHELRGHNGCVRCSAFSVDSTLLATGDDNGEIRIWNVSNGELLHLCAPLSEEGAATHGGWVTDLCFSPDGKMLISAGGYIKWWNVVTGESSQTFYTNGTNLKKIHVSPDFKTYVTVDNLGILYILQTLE
Type: functional

CCc1ccc(S(=O)(=O)/N=C2\C=C(Nc3ccc(C(=O)O)cc3)C(=O)c3ccccc32)cc1
IC50: 9.6 µM (active)
